Data set [1] has as its system HUVEC. Nature of the data set: Anti-angiogenesis activity against HUVEC cells assessed as inhibition of tube formation at 2.5 to 20 uM measured after 3 hrs by fluorescence microscopic analysis. Format: functional, cell-based. As to conditions: Homo sapiens, dose 2.5-20 µM, DDE = dose-dependent effect.
A short description of data set [2]: Cytotoxicity against HUVEC cells assessed as cell viability incubated for 24 hrs by MTT assay. The following applies: human, read-out: Activity. It is filed as toxicity, cell-based. On the technique in general: Tetrazolium dyes change colour on reduction, which living cells bring about.

`CCCC[C@@H](O)[C@H](O)/C=C/C=C/[C@@H]1CC[C@@H](O)[C@H](C)N1`: in data set [1], the Activity entry is “Dde”. Moreover, the viability at 24 h in data set [2] was not below 90%.
